Test results: patent US6700013B2, “Tricyclic fused heterocycle compounds, process for preparing the same and use thereof” (Nippon Suisan Kaisha, Ltd., priority 1999, dated 2004)

Tests used:
[1] = test system: pig tracheal smooth muscles; experiment: Dilating action on contraction of tracheal smooth muscles (high K+ contraction, Magnus tube); details: Sus scrofa, 2 h; K+ contraction (72.7 mM); test substance final concentration 10 μM; two hours after addition; tension before addition = 100%; read-out: Relative Contraction Force (%)
Text: With the use of pig tracheal muscles, the action of the compounds of the present invention on contraction of tracheal muscles has been investigated. The method refers to “Smooth Muscle Manual” (published by Bun'eido Publishing Co.), pp. 125-137. The trachea cartilage mucous membrane and submucous tissue of a pig trachea were removed to prepare a specimen of tracheal smooth muscles having a major diameter of about 10 mm and a minor diameter of about 1.5 mm. This specimen was suspended in a Magnus tube which was aerated with a mixed gas of 95% of oxygen and 5% of carbon dioxide and contained nutrient solution at 37° C. and a load of 0.8 g was applied to this specimen, and after the tension of the specimen was stabilized, the nutrient solution was replaced with a high concentration K^+ solution (72.7 mM) to provoke K^+ contraction. The procedure of replacing the solution in the Magnus tube with the nutrient solution to wash the solution and provoking K^+ contraction with the high concentration K^+ solution was repeated again until the contraction force became constant. When the tension of the K^+ contraction became constant, each of the compounds described in Table 19 (the structural formula of the Comparative Example being described in the right side of the compound of the above described Example 180) was added to the high concentration K^+ solution as the test substance to measure the change in tension. The test substance was dissolved in dimethyl sulfoxide at a predetermined concentration and added to the high concentration K^+ solution in such a manner that the final concentration came to 10 μM. The trachea cartilage mucous membrane and submucous tissue of a pig trachea were removed to prepare a specimen of tracheal smooth muscles having a major diameter of about 10 mm and a minor diameter of about 1.5 mm. This specimen was suspended in a Magnus tube which was aerated with a mixed gas of 95% of oxygen and 5% of carbon dioxide and contained nutrient solution at 37° C. and a load of 0.8 g was applied to this specimen, and after the tension of the specimen was stabilized, the nutrient solution was replaced with a high concentration K+ solution (72.7 mM) to provoke K+ contraction. The procedure of replacing the solution in the Magnus tube with the nutrient solution to wash the solution and provoking K+ contraction with the high concentration K+ solution was repeated again until the contraction force became constant. When the tension of the K+ contraction became constant, each of the compounds described in Table 19 (the structural formula of the Comparative Example being described in the right side of the compound of the above described Example 180) was added to the high concentration K+ solution as the test substance to measure the change in tension. The test substance was dissolved in dimethyl sulfoxide at a predetermined concentration and added to the high concentration K+ solution in such a manner that the final concentration came to […]. Further, the final concentration of dimethyl sulfoxide added was made 0.3% or less. The change in tension was led to a strain pressure amplifier (“AP-621G3”, manufactured by Nippon Koden Kogyo) through a FD pickup transducer (“TB-611T”, manufactured by Nippon Koden Kogyo) and recorded on a recorder (“R-64V”, manufactured by Rika Electric). When the tension before replacement with the high concentration K+ solution was regarded as 0% and the last tension which was generated by the high concentration K+ solution before the addition of a test substance was regarded as 100%, the contraction force of the tracheal smooth muscle two hours after addition of a test substance was shown as relative percentage. […]

[2] = test system: Sprague-Dawley line rats; experiment: Toxicity study of two-week repeated-dose oral administration with rats; type: in vivo; details: male, oral, 0, 125 and 500 mg/kg/day repeatedly for two weeks
Procedure: In order to study the toxicity by repeated-dose administration of compounds, the compounds were dosed orally to Sprague-Dawley line rats (three male rats per group) with 0, 125 and 500 mg/kg/day (a 0.5 w/v % CMC-Na solution) repeatedly for two weeks.

Structure (SMILES) | activity at 10 µM [1] [%] | melting point | Results (toxicity findings) [2]
Oc1cc(O)c2c(c1)Sc1cc(-c3ccco3)ccc1CC2 [Example 124] | 30.3 | 148.5 to 149.6 °C | 
CC1C(=O)c2cc(O)c(O)cc2Sc2ccccc21 (centres unmarked) [Example 37] | 7.5 |  | 
Oc1cc(O)c2c(c1)Sc1cccc(Cl)c1CC2 [Example 27] | 1.4 | 127.3 to 130.7 °C | 
Oc1cc(O)c2c(c1)Sc1ccccc1CC2 [Comparative Example, reference compound] | 54.5 |  | Kidney damage were observed with
O=C1Cc2ccc(-c3ccco3)cc2Sc2cc(O)cc(O)c21 [Example 82] | 22.4 | 234.9 to 238.8 °C | 
O=C1Cc2c(Cl)cccc2Sc2cc(O)cc(O)c21 [Example 17] | 0 | > 200 °C (dec.) | 
O=C1Cc2ccc(-c3cccs3)cc2Sc2cc(O)cc(O)c21 [Example 81] |  | 214.3 to 215.3 °C | 
Oc1cc(O)c2c(c1)Oc1cc(-c3ccco3)ccc1CC2 [Example 115] |  | 198.6 to 201.1 °C | 
O=C(c1ccc2c(c1)CCc1c(O)cc(O)cc1S2)C1CCC1 [Example 134] |  | 141.2 to 141.7 °C | 
CCC1C(=O)c2cc(O)c(O)cc2Sc2cc(-c3cccc(N)c3)ccc21 (centres unmarked) [Example 176] |  | 245.5 to 246.4 °C | 
CCC1C(=O)c2cc(O)c(O)cc2Sc2cc(-c3ccccc3C)ccc21 (centres unmarked) [Example 158] |  | 179.2 to 181.1 °C | 
O=C1Cc2ccc(-c3cccc(C(F)(F)F)c3)cc2Sc2cc(O)cc(O)c21 [Example 91] |  | 225.3 to 226.5 °C | 
CCC1C(=O)c2cc(O)c(O)cc2Sc2cc(-c3ccccc3)ccc21 (centres unmarked) [Example 154] |  | 274.3 to 276.1 °C | 
CCC1C(=O)c2c(O)cc(O)cc2Sc2ccccc21 (centres unmarked) [Example 38] |  | 175 to 177.5 °C | 
Cc1ccc(-c2ccc3c(c2)Sc2cc(O)cc(O)c2C(=O)C3)cc1 [Example 86] |  | 228.4 to 235.2 °C | 
O=C1Cc2ccc(-c3cc4ccccc4o3)cc2Oc2cc(O)cc(O)c21 [Example 95] |  | 257.9 to 259.9 °C | 
O=C(Cc1ccc2c(c1)Oc1cc(O)cc(O)c1C(=O)C2)C1=CCCCC1 [Example 68] |  | 195.5 to 195.8 °C | 
Oc1cc(O)c2c(c1)Oc1ccc(-c3ccccc3)cc1CC2 [Example 109] |  | 176.7 to 179.2 °C | 
CSc1ccc2c(c1)CCc1c(O)cc(O)cc1S2 [Example 2, 8-Methylthio-10,11-dihydrodibenzo[b,f]thiepin-1,3-diol] |  | 161.6 to 163.9 °C | 
CC(=O)c1cc(-c2ccc3c(c2)CC(=O)c2c(O)cc(O)cc2O3)ccc1C [Example 67] |  | 228.4 to 230.8 °C | 
CSc1ccc2c(c1)C=Cc1c(O)cc(O)cc1S2 [Example 28] |  | 182.9 to 184.4 °C | 
CCC1=Cc2cc(O)c(O)cc2Sc2ccccc21 [Example 143] |  | 37.9 to 41.5 °C | 
O=C1Cc2ccc(-c3ccc(O)cc3O)cc2Oc2cc(O)cc(O)c21 [Example 100] |  | 239.1 to 242.6 °C | 
CSc1ccc2c(c1)Sc1cc(O)cc(O)c1C(=O)C2 [Example 19] |  | 182.3 to 184.4 °C | 
CSc1ccc2c(c1)Sc1cc(O)c(O)cc1C(=O)C2 [Example 23] |  | 232 to 236.9 °C | 

Structure (SMILES) | activity at 10 µM [1] [%] | melting point | Results (toxicity findings) [2]
O=C(Cc1ccc2c(c1)CC(=O)c1c(O)cc(O)cc1O2)C1=CCCCC1 [Example 66] |  | 173.8 to 175.8 °C | 
O=C1Cc2ccc(-c3ccccc3)cc2Sc2cc(O)cc(O)c21 [Example 87] |  | 209.7 to 212 °C | 
O=C1Cc2ccc(-c3cccc(Cl)c3)cc2Oc2cc(O)cc(O)c21 [Example 69] |  | 199.9 to 201.4 °C | 
O=C1Cc2ccc(Br)cc2Sc2cc(O)c(O)cc21 [Example 20] |  | > 250 °C | 
CCCCc1ccc2c(c1)CC(=O)c1c(O)cc(O)cc1O2 [Example 50] |  | 105.6 to 106.8 °C | 
OCCCc1ccc2c(c1)CCc1c(O)cc(O)cc1O2 [Example 103] |  | 153.3 to 154.8 °C | 
O=C1Cc2cc(-c3ccc(O)cc3O)ccc2Oc2cc(O)cc(O)c21 [Example 77] |  | 212.6 to 215.7 °C | 
O=C1Cc2ccc(Br)cc2Sc2cc(O)cc(O)c21 [Example 9, 3-Bromo-7,9-dihydroxy-10,11-dihydrodibenzo[b,f]thiepin-10-one] |  | > 200 °C (dec.) | 
Nc1cccc(-c2ccc3c(c2)CC(=O)c2c(O)cc(O)cc2S3)c1 [Example 83] |  | > 200 °C (dec.) | 
O=C1Cc2cc(-c3cccs3)ccc2Oc2cc(O)cc(O)c21 [Example 58] |  | 199.9 to 201 °C | 
CON=C(C)c1ccc2c(c1)CCc1c(O)cc(O)cc1S2 [Example 138] |  | 176.7 to 177.6 °C | 
CCC1C(=O)c2cc(O)c(O)cc2Sc2cc(-c3cccc(C(F)(F)F)c3)ccc21 (centres unmarked) [Example 156] |  | 109.7 to 111.9 °C | 
Oc1cc(O)c2c(c1)Oc1cc(CCc3ccccc3)ccc1CC2 [Example 108] |  | 169.1 to 174.9 °C | 
Nc1cccc(-c2ccc3c(c2)CC(=O)c2c(O)cc(O)cc2O3)c1 [Example 59] |  | > 300 °C (dec.) | 
O=C1Cc2ccc(-c3cccc(Cl)c3)cc2Sc2cc(O)cc(O)c21 [Example 90] |  | 180.3 to 191.6 °C | 
Oc1cc(O)c2c(c1)Sc1cc(-c3cccs3)ccc1CC2 [Example 123] |  | 196.1 to 198.5 °C | 
Oc1cc(O)c2c(c1)Oc1cc(-c3cccs3)ccc1CC2 [Example 110] | 10.9 | 194.2 to 195.6 °C | 
O=C1Cc2ccc(C#Cc3ccccc3)cc2Oc2cc(O)cc(O)c21 [Example 101] |  | 189.4 to 191.1 °C | 
O=C1Cc2cc(-c3ccc(-c4ccccc4)cc3)ccc2Oc2cc(O)cc(O)c21 [Example 79] |  | > 250 °C (dec.) | 
O=C1Cc2cc(Br)ccc2Sc2cc(O)c(O)cc21 [Example 22] |  | 285.7 °C (dec.) | 
CCC1C(=O)c2cc(O)c(O)cc2Sc2cc(-c3ccc(C)cc3)ccc21 (centres unmarked) [Example 160] |  | 271.9 to 273.3 °C | 
CCC1C(=O)c2cc(O)c(O)cc2Sc2cc(-c3cc4ccccc4o3)ccc21 (centres unmarked) [Example 168] |  | 293.2 °C (dec.) | 
Oc1cc(O)c2c(c1)Sc1ccc(-c3cccs3)cc1CC2 [Example 126] |  | 207.3 to 208.1 °C | 
O=C1Cc2ccc(-c3ccc(OC(F)(F)F)cc3)cc2Oc2cc(O)cc(O)c21 [Example 97] |  | 197.7 to 200.8 °C | 
CC1=Cc2cc(O)c(O)cc2Sc2ccccc21 [Example 145] |  | 68.2 to 70.1 °C | 
